Assay results published in US20130005824A1, “TREATMENT OF ISCHEMIC TISSUE” (The Research Foundation of State University of New York, priority 2009, published 2013).
Where two headings read alike, the source gives them in different places.

Tests used:
[1] = system: hamster cheek pouch arterioles (arcade arteriole and terminal arteriolar feed); test: Microvascular response (arteriolar diameter change) to locally applied curcumin in hamster cheek pouch tissue, intravital microscopy; format: in vivo; conditions: for EC50: Mesocricetus auratus
rat comb burn model = test: Burn injury progression in the rat hot comb burn model, intravenous curcumin; format: in vivo; conditions: for interspaces that progressed to full thickness necrosis, histologic analysis: day 7, control 67%
Procedure: In this study, we determined the effects of curcumin on burn progression in the rat hot comb model. […] Pure curcumin (99.9% as determined by HPLC and mass spectroscopy analysis) produced under GMP was acquired from ChromaDex, Inc for the studies described below.
Animals were randomized to receive one of six intravenous doses of curcumin (0.3, 1.0, 3.0, 10, 30, or 100 μg/kg) in 1 ml of phosphate buffered saline (PBS) or PBS alone (buffer control) administered via the tail vein at 1 and 24 hours after injury. […] Full-thickness biopsies from the interspaces 7 days after injury were evaluated for evidence of necrosis after H&E staining. The percentages of interspaces that progressed to necrosis were compared with chi-squared (χ2) tests. At the seventh day, the number of interspaces that processed to full thickness necrosis was 67% for control, 58, 53, 37, 63, 53, and 26% for 0.1, 0.3, 1, 3, 10, 30 and 100 μg/kg curcumin respectively as determined by histologic analysis. Similar results were obtained for the macroscopic evaluation at day 2, 5, and 7. […] The same experiment was repeated a second time and gave essentially the same results.

[2] = curcumin alone, similar for arcade and feed

EC50 ([1]; curcumin alone, micropipette 60 s, similar for arcade and feed, read-out: logEC50 for dilation (converted)): 0.316 nM | EC50 ([1]; curcumin alone, similar for arcade and feed, read-out: logEC50 for constriction (converted)): 3.98 nM | EC50 ([1]; phentolamine 10^−5 M, constrictor component removed, read-out: logEC50, dilation to curcumin with phentolamine (converted)): 0.1 ± 0.004 nM | EC50 ([1]; propranolol 10^−5 M, dilation component removed, read-out: logEC50, constriction to curcumin with propranolol (converted)): 0.01 nM
SMILES: COc1cc(/C=C/C(=O)CC(=O)/C=C/c2ccc(O)c(OC)c2)ccc1O [curcumin, (E,E)-1,7-bis (4-hydroxy-3-methoxyphenyl)-1,6-heptadiene-3,5,-dione]
curcumin-induced dilation remaining with LNNA ([1]; 10^−4M LNNA, curcumin 10^−10 though 10^−7 M): significant curcumin-induced dilation remained | curcumin-induced dilation remaining with LNNA ([1]; 10^−5M LNNA, 10^−12 to 10^−10 M curcumin): a significant dilation remained | curcumin-induced dilation with LNNA ([1]; 10^−5M LNNA, terminal feed arterioles, similar pattern in arcade): attenuated | effect of simultaneous PD142893 on the curcumin response ([1]; PD142893 (endothelin antagonist) 10^−5 M): no effect | effect of PD142893 on maximal dilation and constriction to curcumin ([1]; PD142893 (endothelin antagonist), no effect on baseline diameters): diminished the maximal dilation and enhanced the maximal constriction | curcumin-induced dilation with cAMP blockade ([1]; Rp-8-br-cAMPS, curcumin 10^−6M, arcade, but not terminal arterioles): significantly suppressed | curcumin-induced constriction with cAMP blockade ([1]; Rp-8-br-cAMPS, curcumin 10^−8M, arcade, but not terminal arterioles): attenuated | curcumin-induced dilation with cGMP blockade ([1]; Rp-8-br-cGMPS, terminal and arcade arterioles): prevented all curcumin-induced dilation | local response after microvascular preconditioning ([1]; after deliberate microvascular preconditioning): predominantly constriction | effect of simultaneous atropine on the curcumin response ([1]; atropine (muscarinic antagonist) 10^−7 M): no effect | effect of atropine on maximal dilation and constriction to curcumin ([1]; atropine (muscarinic antagonist), no effect on baseline diameters): diminished the maximal dilation and enhanced the maximal constriction | constrictor and dilatory (cGMP and cAMP mediated) responses before and after repeated exposure (potential cytotoxicity) ([1]; baseline diameter recovery and tone after repeated 60 second exposures): unchanged | terminal arteriole diameter, 60 second time-course ([1]; curcumin 10^−6M continuously applied): initial vasodilation at 20 seconds was followed by vasoconstriction that peaked at 60 seconds | terminal arteriole diameter, 60 second time-course ([1]; curcumin 10^−10M continuously applied): sustained dilation | response to curcumin with propranolol and phentolamine together ([1]; curcumin 10^−10 M, 10^−8M and 10^−6M, terminal and arcade arterioles): blocked all response | peak constriction [1, 2]: −15±5% | peak dilation [1, 2]: +40±8% | peak dilation, terminal versus arcade arterioles ([1]; dose-response 10^−13M to 10^−3M, 20 s and 60 s): significantly greater for terminal arterioles than for arcade arterioles | concentration inducing vasodilation after versus before preconditioning ([1]; in vivo studies to date, after preconditioning): lower concentrations | effect on arteriolar diameter during induced endothelial dysfunction ([1]; nitro-arginine added to the tissue bath): the dilation component was potentiated and constriction was attenuated | peak dilation to curcumin with phentolamine, arcade ([1]; phentolamine 10^−5 M, arcade arteriole): +34±9 | peak dilation to curcumin with phentolamine, feed ([1]; phentolamine 10^−5 M, terminal feed arteriole): +65 +10 | peak constriction to curcumin with propranolol ([1]; propranolol 10^−5 M): −30 ±7% | constriction response to curcumin with phentolamine ([1]; terminal arteriole, phentolamine 10^−5M): abolished | dilation response to curcumin with propranolol ([1]; terminal arteriole, propranolol 10^−5M): abolished | progression to necrosis compared to control (rat comb burn model; 3 μg/kg and 100 μg/kg i.v., p<0.01, macroscopic evaluation and histologic analysis): significantly less progression to necrosis | interspaces that progressed to full thickness necrosis, histologic analysis (rat comb burn model; fifth value listed (30 μg/kg by method)): 53% | interspaces that progressed to full thickness necrosis, histologic analysis (rat comb burn model; fourth value listed (10 μg/kg by method)): 63% | interspaces that progressed to full thickness necrosis, histologic analysis (rat comb burn model; i.v. at 1 and 24 h after injury, first value listed (0.3 μg/kg by method, 0.1 μg/kg by the sentence)): 58% | interspaces that progressed to full thickness necrosis, histologic analysis (rat comb burn model; last value listed (100 μg/kg)): 26% | interspaces that progressed to full thickness necrosis, histologic analysis (rat comb burn model; second value listed (1 μg/kg by method)): 53% | interspaces that progressed to full thickness necrosis, histologic analysis (rat comb burn model; third value listed (3 μg/kg by method)): 37%
